Experimental data taken from the NIST ThermoML archive (doi:10.1021/je100765j).

Assay: xn = mol fraction of the nth substance listed
Conditions: 101 kPa, Liquid; for speed of sound: Sing-around technique in a fixed-path interferometer

CC(C)(C)Cl [2-chloro-2-methylpropane] + CC(C)OC(C)C
Conditions	mass density [kg/m3]	speed of sound [m/s]
283.15 K, x1 = 0.049	738.51	1064.9
283.15 K, x1 = 0.0996	743.477	1064.1
283.15 K, x1 = 0.1991	753.625	1062.7
283.15 K, x1 = 0.3212	766.738	1060.7
283.15 K, x1 = 0.4189	777.752	1059.1
283.15 K, x1 = 0.5148	789.053	1057.4
283.15 K, x1 = 0.6213	802.211	1055.4
283.15 K, x1 = 0.7152	814.386	1053.5
283.15 K, x1 = 0.8138	827.84	1051.4
283.15 K, x1 = 0.9079	841.342	1049.2
283.15 K, x1 = 0.9552	848.393	1048.1
288.15 K, x1 = 0.049	733.338	1042.5
288.15 K, x1 = 0.0996	738.271	1041.8
288.15 K, x1 = 0.1991	748.35	1040.4
288.15 K, x1 = 0.3212	761.373	1038.5
288.15 K, x1 = 0.4189	772.305	1037
288.15 K, x1 = 0.5148	783.527	1035.4
288.15 K, x1 = 0.6213	796.59	1033.5
288.15 K, x1 = 0.7152	808.683	1031.8
288.15 K, x1 = 0.8138	822.038	1029.8
288.15 K, x1 = 0.9079	835.444	1027.7
288.15 K, x1 = 0.9552	842.442	1026.6
293.15 K, x1 = 0.049	728.121	1020
293.15 K, x1 = 0.0996	733.024	1019.4
293.15 K, x1 = 0.1991	743.024	1018
293.15 K, x1 = 0.3212	755.959	1016.3
293.15 K, x1 = 0.4189	766.815	1014.9
293.15 K, x1 = 0.5148	777.959	1013.4
293.15 K, x1 = 0.6213	790.929	1011.6
293.15 K, x1 = 0.7152	802.935	1010
293.15 K, x1 = 0.8138	816.189	1008.1
293.15 K, x1 = 0.9079	829.491	1006.1
293.15 K, x1 = 0.9552	836.437	1005.1
298.15 K, x1 = 0.049	722.867	997.71
298.15 K, x1 = 0.0996	727.738	997.09
298.15 K, x1 = 0.1991	737.666	995.89
298.15 K, x1 = 0.3212	750.506	994.32
298.15 K, x1 = 0.4189	761.286	993.03
298.15 K, x1 = 0.5148	772.351	991.68
298.15 K, x1 = 0.6213	785.228	990.11
298.15 K, x1 = 0.7152	797.145	988.62
298.15 K, x1 = 0.8138	810.301	986.91
298.15 K, x1 = 0.9079	823.502	985.13
298.15 K, x1 = 0.9552	830.397	984.18
303.15 K, x1 = 0.049	717.578	975.46
303.15 K, x1 = 0.0996	722.411	974.84
303.15 K, x1 = 0.1991	732.264	973.65
303.15 K, x1 = 0.3212	745.015	972.13
303.15 K, x1 = 0.4189	755.716	970.88
303.15 K, x1 = 0.5148	766.702	969.59
303.15 K, x1 = 0.6213	779.48	968.1
303.15 K, x1 = 0.7152	791.311	966.67
303.15 K, x1 = 0.8138	804.371	965.04
303.15 K, x1 = 0.9079	817.469	963.34
303.15 K, x1 = 0.9552	824.312	962.38
308.15 K, x1 = 0.049	712.24	953.42
308.15 K, x1 = 0.0996	717.041	952.84
308.15 K, x1 = 0.1991	726.821	951.71
308.15 K, x1 = 0.3212	739.479	950.28
308.15 K, x1 = 0.4189	750.102	949.13
308.15 K, x1 = 0.5148	761.005	947.93
308.15 K, x1 = 0.6213	773.688	946.56
308.15 K, x1 = 0.7152	785.433	945.25
308.15 K, x1 = 0.8138	798.394	943.74
308.15 K, x1 = 0.9079	811.393	942.17
308.15 K, x1 = 0.9552	818.179	941.27
313.15 K, x1 = 0.049	706.86	931.51
313.15 K, x1 = 0.0996	711.627	930.96
313.15 K, x1 = 0.1991	721.331	929.87
313.15 K, x1 = 0.3212	733.893	928.52
313.15 K, x1 = 0.4189	744.44	927.44
313.15 K, x1 = 0.5148	755.257	926.35
313.15 K, x1 = 0.6213	767.848	925.1
313.15 K, x1 = 0.7152	779.502	923.88
313.15 K, x1 = 0.8138	792.364	922.47
313.15 K, x1 = 0.9079	805.264	921
313.15 K, x1 = 0.9552	811.999	920.15

CCCCCl [1-chlorobutane] + CC(C)OC(C)C
Conditions	mass density [kg/m3]	speed of sound [m/s]
283.15 K, x1 = 0.0466	740.095	1070.9
283.15 K, x1 = 0.0991	747.139	1076.6
283.15 K, x1 = 0.1918	759.833	1087
283.15 K, x1 = 0.32	778.726	1101.5
283.15 K, x1 = 0.4199	793.339	1112.3
283.15 K, x1 = 0.516	808.586	1123.3
283.15 K, x1 = 0.623	826.434	1135.5
283.15 K, x1 = 0.7154	842.63	1146.3
283.15 K, x1 = 0.8157	861.003	1158.2
283.15 K, x1 = 0.9098	879.099	1169.3
283.15 K, x1 = 0.9559	888.28	1174.9
288.15 K, x1 = 0.0466	734.99	1048.6
288.15 K, x1 = 0.0991	741.966	1054.3
288.15 K, x1 = 0.1918	754.629	1064.7
288.15 K, x1 = 0.32	773.471	1079.4
288.15 K, x1 = 0.4199	788.055	1090.3
288.15 K, x1 = 0.516	803.274	1101.5
288.15 K, x1 = 0.623	821.073	1114
288.15 K, x1 = 0.7154	837.246	1125
288.15 K, x1 = 0.8157	855.588	1137
288.15 K, x1 = 0.9098	873.635	1148.4
288.15 K, x1 = 0.9559	882.81	1154.2
293.15 K, x1 = 0.0466	729.792	1026.2
293.15 K, x1 = 0.0991	736.75	1032
293.15 K, x1 = 0.1918	749.383	1042.5
293.15 K, x1 = 0.32	768.192	1057.3
293.15 K, x1 = 0.4199	782.731	1068.4
293.15 K, x1 = 0.516	797.924	1079.7
293.15 K, x1 = 0.623	815.68	1092.4
293.15 K, x1 = 0.7154	831.821	1103.6
293.15 K, x1 = 0.8157	850.133	1115.9
293.15 K, x1 = 0.9098	868.142	1127.6
293.15 K, x1 = 0.9559	877.303	1133.4
298.15 K, x1 = 0.0466	724.56	1003.8
298.15 K, x1 = 0.0991	731.492	1009.7
298.15 K, x1 = 0.1918	744.091	1020.2
298.15 K, x1 = 0.32	762.854	1035.2
298.15 K, x1 = 0.4199	777.351	1046.6
298.15 K, x1 = 0.516	792.506	1058
298.15 K, x1 = 0.623	810.177	1071
298.15 K, x1 = 0.7154	826.321	1082.3
298.15 K, x1 = 0.8157	844.587	1094.8
298.15 K, x1 = 0.9098	862.556	1106.6
298.15 K, x1 = 0.9559	871.691	1112.7
303.15 K, x1 = 0.0466	719.283	981.56
303.15 K, x1 = 0.0991	726.204	987.54
303.15 K, x1 = 0.1918	738.777	998.37
303.15 K, x1 = 0.32	757.526	1013.6
303.15 K, x1 = 0.4199	771.984	1024.8
303.15 K, x1 = 0.516	787.119	1036.5
303.15 K, x1 = 0.623	804.761	1049.6
303.15 K, x1 = 0.7154	820.882	1061.1
303.15 K, x1 = 0.8157	839.124	1073.8
303.15 K, x1 = 0.9098	857.076	1085.9
303.15 K, x1 = 0.9559	866.204	1092
308.15 K, x1 = 0.0466	713.967	959.5
308.15 K, x1 = 0.0991	720.87	965.54
308.15 K, x1 = 0.1918	733.414	976.43
308.15 K, x1 = 0.32	752.126	991.71
308.15 K, x1 = 0.4199	766.553	1003.3
308.15 K, x1 = 0.516	781.656	1015
308.15 K, x1 = 0.623	799.266	1028.4
308.15 K, x1 = 0.7154	815.358	1040.1
308.15 K, x1 = 0.8157	833.567	1053
308.15 K, x1 = 0.9098	851.486	1065.3
308.15 K, x1 = 0.9559	860.595	1071.5
313.15 K, x1 = 0.0466	708.604	937.74
313.15 K, x1 = 0.0991	715.486	943.72
313.15 K, x1 = 0.1918	728.002	954.72
313.15 K, x1 = 0.32	746.649	970.22
313.15 K, x1 = 0.4199	761.063	981.83
313.15 K, x1 = 0.516	776.136	993.77
313.15 K, x1 = 0.623	793.704	1007.3
313.15 K, x1 = 0.7154	809.769	1019.1
313.15 K, x1 = 0.8157	827.935	1032.2
313.15 K, x1 = 0.9098	845.816	1044.8
313.15 K, x1 = 0.9559	854.913	1051.1
